According to ChEMBL document CHEMBL4190265, “Structural optimization elaborates novel potent Akt inhibitors with promising anticancer activity” (Eur J Med Chem, 2017):
One block for each molecule: values may come before it.

How the values were obtained:
JeKo-1 [1] = assay: Induction of apoptosis in human JeKo1 cells assessed as early apoptotic cells at 1 uM after 48 hrs by Annexin V-FITC/propidium iodide double staining based flow cytometry (reference value: 5.42%); type: functional
JeKo-1 [2] = assay: Cell cycle arrest in human JeKo1 cells assessed as accumulation at G2/M phase at 0.5 uM after 24 hrs by propidium iodide staining based flow cytometry (reference value: 18.4%); type: functional
JeKo-1 [3] = assay: Induction of apoptosis in human JeKo1 cells assessed as early apoptotic cells at 0.5 uM after 48 hrs by Annexin V-FITC/propidium iodide double staining based flow cytometry (reference value: 6.18%); type: functional
JeKo-1 [4] = assay: Induction of apoptosis in human JeKo1 cells assessed as viable cells at 1 uM after 48 hrs by Annexin V-FITC/propidium iodide double staining based flow cytometry (reference value: 91.1%); type: functional; conditions: JeKo-1, 48 h, read-out: Activity
[5] = target: RAC-alpha serine/threonine-protein kinase (Homo sapiens, UniProt P31749); assay: Inhibition of AKT1 (unknown origin) using biotinylated-STK as substrate after 45 mins by HTRF assay
Sequence of RAC-alpha serine/threonine-protein kinase (P31749 whole entry): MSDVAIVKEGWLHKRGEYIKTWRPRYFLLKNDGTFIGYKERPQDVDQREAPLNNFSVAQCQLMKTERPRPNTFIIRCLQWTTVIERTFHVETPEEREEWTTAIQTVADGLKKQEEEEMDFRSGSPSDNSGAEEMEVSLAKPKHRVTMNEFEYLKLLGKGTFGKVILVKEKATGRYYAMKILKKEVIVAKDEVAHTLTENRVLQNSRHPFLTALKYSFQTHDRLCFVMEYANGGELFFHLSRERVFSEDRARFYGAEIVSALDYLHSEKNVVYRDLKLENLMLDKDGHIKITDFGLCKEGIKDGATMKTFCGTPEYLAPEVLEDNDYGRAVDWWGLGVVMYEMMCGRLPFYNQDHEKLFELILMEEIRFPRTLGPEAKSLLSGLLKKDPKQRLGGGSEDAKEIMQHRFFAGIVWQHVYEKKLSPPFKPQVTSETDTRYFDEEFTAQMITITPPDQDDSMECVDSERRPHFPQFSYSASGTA

JeKo-1 [6] = assay: Induction of apoptosis in human JeKo1 cells assessed as viable cells at 1 uM after 48 hrs by Annexin V-FITC/propidium iodide double staining based flow cytometry (reference value: 91.9%); type: functional; conditions: JeKo-1, 48 h, read-out: Activity
Z-138 = assay: Antiproliferative activity against human Z138 cells after 72 hrs by CellTiter Glo assay; type: functional, cell-based; conditions: Z-138, 72 h
JeKo-1 [7] = assay: Induction of apoptosis in human JeKo1 cells assessed as early apoptotic cells at 1 uM after 48 hrs by Annexin V-FITC/propidium iodide double staining based flow cytometry (reference value: 6.18%); type: functional
JeKo-1 [8] = assay: Induction of apoptosis in human JeKo1 cells assessed as viable cells at 1 uM after 24 hrs by Annexin V-FITC/propidium iodide double staining based flow cytometry (reference value: 91.9%); type: functional; conditions: JeKo-1, 24 h, read-out: Activity
JeKo-1 [9] = assay: Induction of apoptosis in human JeKo1 cells assessed as necrotic cells at 1 uM after 72 hrs by Annexin V-FITC/propidium iodide double staining based flow cytometry (reference value: 0.62%); type: functional
JeKo-1 [10] = assay: Induction of apoptosis in human JeKo1 cells assessed as late apoptotic cells at 5 uM after 48 hrs by Annexin V-FITC/propidium iodide double staining based flow cytometry (reference value: 1.9%); type: functional
JeKo-1 [11] = assay: Induction of apoptosis in human JeKo1 cells assessed as viable cells at 5 uM after 48 hrs by Annexin V-FITC/propidium iodide double staining based flow cytometry (reference value: 91.1%); type: functional; conditions: JeKo-1, 48 h, read-out: Activity
JeKo-1 [12] = assay: Induction of apoptosis in human JeKo1 cells assessed as necrotic cells at 1 uM after 24 hrs by Annexin V-FITC/propidium iodide double staining based flow cytometry (reference value: 0.62%); type: functional
JeKo-1 [13] = assay: Induction of apoptosis in human JeKo1 cells assessed as early apoptotic cells at 1 uM after 24 hrs by Annexin V-FITC/propidium iodide double staining based flow cytometry (reference value: 5.42%); type: functional
Maver1 = assay: Antiproliferative activity against human Maver1 cells after 72 hrs by CellTiter Glo assay; type: functional, cell-based; conditions: Maver1, 72 h
JeKo-1 [14] = assay: Cell cycle arrest in human JeKo1 cells assessed as accumulation at G2/M phase at 1 uM after 24 hrs by propidium iodide staining based flow cytometry (reference value: 18.4%); type: functional
JeKo-1 [15] = assay: Induction of apoptosis in human JeKo1 cells assessed as necrotic cells at 1 uM after 48 hrs by Annexin V-FITC/propidium iodide double staining based flow cytometry (reference value: 0.62%); type: functional
JeKo-1 [16] = assay: Induction of apoptosis in human JeKo1 cells assessed as necrotic cells at 1 uM after 48 hrs by Annexin V-FITC/propidium iodide double staining based flow cytometry (reference value: 0.81%); type: functional
JeKo-1 [17] = assay: Cell cycle arrest in human JeKo1 cells assessed as accumulation at S phase at 1 uM after 24 hrs by propidium iodide staining based flow cytometry (reference value: 36.8%); type: functional
JeKo-1 [18] = assay: Induction of apoptosis in human JeKo1 cells assessed as late apoptotic cells at 1 uM after 24 hrs by Annexin V-FITC/propidium iodide double staining based flow cytometry (reference value: 2.06%); type: functional
JeKo-1 [19] = assay: Induction of apoptosis in human JeKo1 cells assessed as necrotic cells at 0.5 uM after 48 hrs by Annexin V-FITC/propidium iodide double staining based flow cytometry (reference value: 0.81%); type: functional
JVM-2 = assay: Antiproliferative activity against human JVM2 cells after 72 hrs by CellTiter Glo assay; type: functional, cell-based; conditions: JVM-2, 72 h
JeKo-1 [20] = assay: Induction of apoptosis in human JeKo1 cells assessed as early apoptotic cells at 1 uM after 72 hrs by Annexin V-FITC/propidium iodide double staining based flow cytometry (reference value: 5.42%); type: functional
[21] = Antiproliferative activity against human Mino cells after 72 hrs by CellTiter Glo assay; type: functional, cell-based
[22] = Antiproliferative activity against human SP49 cells after 72 hrs by CellTiter Glo assay; type: functional, cell-based
JeKo-1 [23] = assay: Induction of apoptosis in human JeKo1 cells assessed as late apoptotic cells at 0.5 uM after 48 hrs by Annexin V-FITC/propidium iodide double staining based flow cytometry (reference value: 1.9%); type: functional
JeKo-1 [24] = assay: Induction of apoptosis in human JeKo1 cells assessed as necrotic cells at 5 uM after 48 hrs by Annexin V-FITC/propidium iodide double staining based flow cytometry (reference value: 0.81%); type: functional
JeKo-1 [25] = assay: Induction of apoptosis in human JeKo1 cells assessed as viable cells at 1 uM after 72 hrs by Annexin V-FITC/propidium iodide double staining based flow cytometry (reference value: 91.9%); type: functional; conditions: JeKo-1, 72 h, read-out: Activity
JeKo-1 [26] = assay: Cell cycle arrest in human JeKo1 cells assessed as accumulation at S phase at 0.5 uM after 24 hrs by propidium iodide staining based flow cytometry (reference value: 36.8%); type: functional
JeKo-1 [27] = assay: Induction of apoptosis in human JeKo1 cells assessed as late apoptotic cells at 1 uM after 72 hrs by Annexin V-FITC/propidium iodide double staining based flow cytometry (reference value: 2.06%); type: functional
JeKo-1 [28] = assay: Induction of apoptosis in human JeKo1 cells assessed as viable cells at 0.5 uM after 48 hrs by Annexin V-FITC/propidium iodide double staining based flow cytometry (reference value: 91.1%); type: functional; conditions: JeKo-1, 48 h, read-out: Activity
JeKo-1 [29] = assay: Induction of apoptosis in human JeKo1 cells assessed as late apoptotic cells at 1 uM after 48 hrs by Annexin V-FITC/propidium iodide double staining based flow cytometry (reference value: 2.06%); type: functional
JeKo-1 [30] = assay: Antiproliferative activity against human JeKo1 cells after 72 hrs by CellTiter Glo assay; type: functional, cell-based; conditions: JeKo-1, 72 h
JeKo-1 [31] = assay: Induction of apoptosis in human JeKo1 cells assessed as late apoptotic cells at 1 uM after 48 hrs by Annexin V-FITC/propidium iodide double staining based flow cytometry (reference value: 1.9%); type: functional
JeKo-1 [32] = assay: Induction of apoptosis in human JeKo1 cells assessed as early apoptotic cells at 5 uM after 48 hrs by Annexin V-FITC/propidium iodide double staining based flow cytometry (reference value: 6.18%); type: functional
JeKo-1 [33] = assay: Cell cycle arrest in human JeKo1 cells assessed as accumulation at G0/G1 phase at 0.5 uM after 24 hrs by propidium iodide staining based flow cytometry (reference value: 44.8%); type: functional
JeKo-1 [34] = assay: Cell cycle arrest in human JeKo1 cells assessed as accumulation at G0/G1 phase at 1 uM after 24 hrs by propidium iodide staining based flow cytometry (reference value: 44.8%); type: functional

SMILES: O=C(N1CCN(c2ncnc3[nH]cc(Cl)c23)CC1)C1(c2ccc(Br)cc2)CCNCC1
Activity (JeKo-1 [1]): 34%
Activity (JeKo-1 [2]): 32.7%
Activity (JeKo-1 [3]): 15.4%
viability at 1 µM (JeKo-1 [4]): 49.1%
IC50 [5]: 1.8 nM
viability at 1 µM (JeKo-1 [6]): 49.1%
IC50 (Z-138): 200 nM
Activity (JeKo-1 [7]): 34%
viability at 1 µM (JeKo-1 [8]): 69.7%
Activity (JeKo-1 [9]): 0.26%
Activity (JeKo-1 [10]): 23%
viability at 5 µM (JeKo-1 [11]): 6.4%
Activity (JeKo-1 [12]): 0.091%
Activity (JeKo-1 [13]): 9.81%
IC50 (Maver1): 300 nM
Activity (JeKo-1 [14]): 72.4%
Activity (JeKo-1 [15]): 0.21%
Activity (JeKo-1 [16]): 0.21%
Activity (JeKo-1 [17]): 18.8%
Activity (JeKo-1 [18]): 20.4%
Activity (JeKo-1 [19]): 0.7%
IC50 (JVM-2): 700 nM
Activity (JeKo-1 [20]): 53.5%
IC50 [21]: 700 nM
IC50 [22]: 1500 nM
Activity (JeKo-1 [23]): 8.31%
Activity (JeKo-1 [24]): 0.43%
viability at 1 µM (JeKo-1 [25]): 35.6%
Activity (JeKo-1 [26]): 21.2%
Activity (JeKo-1 [27]): 10.7%
viability at 0.5 µM (JeKo-1 [28]): 75.6%
Activity (JeKo-1 [29]): 16.6%
IC50 (JeKo-1 [30]): 300 nM
Activity (JeKo-1 [31]): 16.6%
Activity (JeKo-1 [32]): 70.1%
Activity (JeKo-1 [33]): 46.1%
Activity (JeKo-1 [34]): 8.8%

SMILES: O=C(N1CCN(c2ncnc3[nH]cc(Cl)c23)CC1)C1(c2ccc(Cl)cc2)CCNCC1
IC50 [5]: 1.9 nM

SMILES: O=C(N1CCN(c2ncnc3[nH]ccc23)CC1)C1(c2ccc(Cl)c(Cl)c2)CCNCC1
IC50 [5]: > 40 nM

SMILES: O=C(N1CCN(c2ncnc3[nH]cc(Br)c23)CC1)C1(c2ccc(Cl)cc2)CCNCC1
IC50 [5]: 1.5 nM
IC50 (Z-138): 1700 nM
IC50 (Maver1): 1800 nM
IC50 (JVM-2): 2300 nM
IC50 [21]: 3500 nM
IC50 [22]: 4700 nM
IC50 (JeKo-1 [30]): 1200 nM

SMILES: O=C(N1CCN(c2ncnc3[nH]cc(Br)c23)CC1)C1(c2ccc(Cl)c(Cl)c2)CCNCC1
IC50 [5]: 4.3 nM

SMILES: CC(C)(C)c1ccc(C2(C(=O)N3CCN(c4ncnc5[nH]ccc45)CC3)CCNCC2)cc1
IC50 [5]: > 40 nM

SMILES: O=C(N1CCN(c2ncnc3[nH]ccc23)CC1)C1(c2ccc(Br)cc2)CCNCC1
IC50 [5]: 27.1 nM

SMILES: O=C(N1CCN(c2ncnc3[nH]cc(Br)c23)CC1)C1(c2cccc(Br)c2)CCNCC1
IC50 [5]: 7.6 nM

SMILES: O=C(N1CCN(c2ncnc3[nH]ccc23)CC1)C1(c2ccc(Cl)cc2)CCNCC1
IC50 [5]: 26.5 nM

SMILES: O=C(N1CCN(c2ncnc3[nH]cc(Cl)c23)CC1)C1(c2ccc(Cl)c(Cl)c2)CCNCC1
IC50 [5]: 2.9 nM

IC50 [5]: 18 nM
SMILES: O=C(Cc1ccc(Cl)cc1)N1CCN(c2ncnc3[nH]cc(Br)c23)CC1
IC50 (Z-138): 6800 nM
IC50 (Maver1): 18500 nM
IC50 (JVM-2): 9900 nM
IC50 [21]: 18100 nM
IC50 [22]: 7800 nM
IC50 (JeKo-1 [30]): 8700 nM

SMILES: COc1ccc(C2(C(=O)N3CCN(c4ncnc5[nH]cc(Br)c45)CC3)CCNCC2)cc1
IC50 [5]: 14.1 nM

SMILES: COc1ccc(C2(C(=O)N3CCN(c4ncnc5[nH]ccc45)CC3)CCNCC2)cc1
IC50 [5]: 35.6 nM

SMILES: O=C(N1CCN(c2ncnc3[nH]cc(Cl)c23)CC1)C1(c2cccc(Br)c2)CCNCC1
IC50 [5]: 5.6 nM

SMILES: O=C(N1CCN(c2ncnc3[nH]cc(Br)c23)CC1)C1(c2ccccc2)CCNCC1
IC50 [5]: 20.3 nM

SMILES: CCn1c(-c2nonc2N)nc2c(C#CC(C)(C)O)ncc(OC[C@H]3CCCNC3)c21 [GSK-690693]
IC50 (Z-138): 3100 nM
IC50 (Maver1): 5100 nM
IC50 (JVM-2): 1600 nM
IC50 [21]: 20800 nM
IC50 [22]: 4800 nM
IC50 (JeKo-1 [30]): 3000 nM
